Experimental data: patent publication US20140275078A1, “COMPOSITIONS AND METHODS FOR TREATING CANCER USING PI3KB INHIBITOR AND MAPK PATHWAY INHIBITOR, INCLUDING MEK AND RAF INHIBITORS” (SANOFI, priority 2011, published 2014)
Values joined by “and” are separate entries in the source; they are usually repeats but may differ in a detail not shown here. Equal values may be shown once. Read-outs that look alike come from different tables or passages of the source.

What was measured:
[1] = test system: human melanoma cell line UACC-62; experiment: Cell proliferation (CelltiterGlo, ray design) in UACC-62; assay type: cell-based; details: single agent, 96 hours, 4-parameter logistic model
Description: The human melanoma UACC-62 cell line was purchased at NCI (Batch 0503000). The UACC-62 cells were cultured in RPMI1640 medium supplemented with 10% FBS and 2 mM L-Glutamine.
They were diluted in cascade, in DMSO and then diluted 50-fold in culture medium containing 10% serum before being added onto cells with a 20-fold dilution factor. The final concentrations tested were defined by Ray design described in Table 1. The DMSO concentration was 0.1% in controls and in all treated wells.
(§1) UACC-62 cells were plated at 2500 cells/well in 96-well plates in appropriate culture medium and incubated 6 hours at 37° C., 5% CO2. […] Cell growth was evaluated by measuring intracellular ATP using CelltiterGlo® reagent (Promega) according to the manufacturer's protocol. Briefly, Cell Titer Glo was added to each plate, incubated for 1 hour then luminescent signal was read on the MicroBeta Luminescent plate reader. All plates were run in duplicate. All assays were run at least in duplicate.
(§2) Inhibition of cell growth was estimated after treatment with compound or combination of compounds for four days and comparing the signal to cells treated with vehicle (DMSO).
Growth inhibition percentage (GI %) was calculated according to the following equation: GI %=100*(1−((X−BG)/(TC−BG)) […]

[2] = test system: human melanoma cell line WM-266-4; experiment: Cell proliferation (CelltiterGlo, ray design) in WM-266-4; assay type: cell-based; details: single agent, 96 hours, 4-parameter logistic model
Description: as §1, §2
Growth inhibition percentage (GI %) was calculated according to the following equation: GI %=100*(1−((X−BG)/(TC−BG))
A global non linear mixed model using NLMIXED procedure of SAS V9.2 was applied to fit simultaneously the concentration-responses curves for each ray. The combination index
of each ray i and its 95% confidence interval was then estimated using the following equation: […]
where IC40A and IC40B are the concentrations of compound A and compound B necessary to obtain 40% of inhibition for each compound alone and CA and CB are the concentrations of compound A and compound B in the mixture necessary to obtain 40% of inhibition.
The human melanoma WM-266-4 cell line was purchased at ATCC (Ref number CRL-1676 Batch 3272826). The WM-266-4 cells were cultured in RPMI1640 medium supplemented with 10% FBS and 2 mM L-Glutamine.
Materials and Methods are the same described in example 1.
The human melanoma WM-266-4 cell line was purchased at ATCC (Ref number CRL-1676 Batch 3272826). The WM-266.4 cells were cultured in RPMI1640 medium supplemented with 10% FBS and 2 mM L-Glutamine.

[3] = test system: human melanoma tumors WM-266.4; details: for tolerability (body weight loss): Cpd (2a) 25 and 10 mg/kg qd, Cpd (2b) 100 and 50 mg/kg qd, single agents or combination
[4] = test system: human primary colon tumors CR-IGR-014P; details: Ex. 8, Cpd (I) 150 mg/kg bid
[5] = Chemical stability of dosing stock solution; details: oral dosing formulation of each compound; in the dark at RT
[6] = test system: human melanoma tumors UACC-62; experiment: Antitumor activity against subcutaneous UACC-62 tumors in SCID female mice; details: for tolerability (body weight loss): single agents or combination
[7] = biological target: PI3K gamma (Homo sapiens, UniProt P48736); details: cited from earlier work
Chain of PI3K gamma (P48736 whole entry): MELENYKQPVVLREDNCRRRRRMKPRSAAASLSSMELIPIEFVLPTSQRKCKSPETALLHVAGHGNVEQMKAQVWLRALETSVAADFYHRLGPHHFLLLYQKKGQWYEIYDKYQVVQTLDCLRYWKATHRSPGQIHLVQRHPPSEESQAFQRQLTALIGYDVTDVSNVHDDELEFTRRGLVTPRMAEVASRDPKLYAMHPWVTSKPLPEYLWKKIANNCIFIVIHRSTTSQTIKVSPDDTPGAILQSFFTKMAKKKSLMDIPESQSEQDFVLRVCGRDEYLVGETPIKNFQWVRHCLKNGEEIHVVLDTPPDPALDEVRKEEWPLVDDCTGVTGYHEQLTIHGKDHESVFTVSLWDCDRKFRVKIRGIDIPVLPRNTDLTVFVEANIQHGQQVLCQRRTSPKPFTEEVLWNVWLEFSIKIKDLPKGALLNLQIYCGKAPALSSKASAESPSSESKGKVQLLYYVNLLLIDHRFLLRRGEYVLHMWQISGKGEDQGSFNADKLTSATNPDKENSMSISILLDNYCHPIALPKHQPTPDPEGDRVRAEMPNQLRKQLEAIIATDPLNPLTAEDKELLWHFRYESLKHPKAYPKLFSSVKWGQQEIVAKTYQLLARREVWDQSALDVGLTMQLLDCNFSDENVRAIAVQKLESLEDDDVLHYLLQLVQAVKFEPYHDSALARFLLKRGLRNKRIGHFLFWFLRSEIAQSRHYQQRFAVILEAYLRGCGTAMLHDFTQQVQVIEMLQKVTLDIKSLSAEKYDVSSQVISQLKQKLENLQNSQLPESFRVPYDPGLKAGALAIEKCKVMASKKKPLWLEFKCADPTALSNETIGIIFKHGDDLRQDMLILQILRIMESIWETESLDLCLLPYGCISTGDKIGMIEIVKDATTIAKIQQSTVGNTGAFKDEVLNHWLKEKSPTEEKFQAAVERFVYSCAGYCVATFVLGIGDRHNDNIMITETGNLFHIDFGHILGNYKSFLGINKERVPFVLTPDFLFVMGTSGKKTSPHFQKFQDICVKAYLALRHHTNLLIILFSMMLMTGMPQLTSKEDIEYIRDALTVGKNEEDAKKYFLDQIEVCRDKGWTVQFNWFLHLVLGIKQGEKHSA

[8] = Ex. 7, PO d21-31, Cpd (I) 150 mg/kg bid, Cpd (2a) 10 mg/kg qd, alone or combined
[9] = PO d20-36, Cpd (2a) 10 mg/kg qd, alone or combined
[10] = Ex. 5, PO d11-22, Cpd (I) 150 mg/kg bid, Cpd (2a) 10 mg/kg qd, alone or combined
[11] = Ex. 7, Cpd (I) 150 mg/kg bid, Cpd (2b) 50 mg/kg qd, alone or combined, Day 24
[12] = Ex. 7, Cpd (I) 150 mg/kg bid, Cpd (2b) 50 mg/kg qd, alone or combined, Day 27
[13] = Ex. 7, Cpd (I) 150 mg/kg bid, Cpd (2b) 50 mg/kg qd, alone or combined, Day 29
[14] = Ex. 7, Cpd (I) 150 mg/kg bid, Cpd (2b) 50 mg/kg qd, alone or combined, Day 31
[15] = Ex. 7, Cpd (I) 150 mg/kg bid, Cpd (2b) 50 mg/kg qd, alone or combined, Global
[16] = Ex. 7, Cpd (I) 150 mg/kg bid, Cpd (2b) 100 mg/kg qd, alone or combined, Day 24
[17] = Ex. 7, Cpd (I) 150 mg/kg bid, Cpd (2b) 100 mg/kg qd, alone or combined, Day 27
[18] = Ex. 7, Cpd (I) 150 mg/kg bid, Cpd (2b) 100 mg/kg qd, alone or combined, Day 29
[19] = Ex. 7, Cpd (I) 150 mg/kg bid, Cpd (2b) 100 mg/kg qd, alone or combined, Day 31
[20] = Ex. 7, Cpd (I) 150 mg/kg bid, Cpd (2b) 100 mg/kg qd, alone or combined, Global
[21] = Ex. 6, Cpd (I) 151.5 mg/kg bid, Cpd (2b) 50 mg/kg qd, alone or combined, Day 11
[22] = Ex. 6, Cpd (I) 151.5 mg/kg bid, Cpd (2b) 50 mg/kg qd, alone or combined, Day 13
[23] = Ex. 6, Cpd (I) 151.5 mg/kg bid, Cpd (2b) 50 mg/kg qd, alone or combined, Day 15
[24] = Ex. 6, Cpd (I) 151.5 mg/kg bid, Cpd (2b) 50 mg/kg qd, alone or combined, Global
[25] = Ex. 6, Cpd (I) 151.5 mg/kg bid, Cpd (2b) 100 mg/kg qd, alone or combined, Day 11
[26] = Ex. 6, Cpd (I) 151.5 mg/kg bid, Cpd (2b) 100 mg/kg qd, alone or combined, Day 13
[27] = Ex. 6, Cpd (I) 151.5 mg/kg bid, Cpd (2b) 100 mg/kg qd, alone or combined, Day 15
[28] = Ex. 6, Cpd (I) 151.5 mg/kg bid, Cpd (2b) 100 mg/kg qd, alone or combined, Global
[29] = Ex. 6, PO d8-15, Cpd (I) 151.5 mg/kg bid, Cpd (2b) 100 mg/kg qd, alone or combined

| SMILES | Absolute IC40 ([2]; example 3) [nM] | tolerability (body weight loss) ([3]; Ex. 7, Cpd (I) 150 mg/kg bid) | stock solution chemically stable [5] [days] | Tumor volume changes from baseline: Median (nMad) [3, 11] | Tumor volume changes from baseline: Median (nMad) [3, 12] | Tumor volume changes from baseline: Median (nMad) [3, 13] | Tumor volume changes from baseline: Median (nMad) [3, 14] | Tumor volume changes from baseline: Median (nMad) [3, 15] | Tumor volume changes from baseline: Median (nMad) [3, 16] | Tumor volume changes from baseline: Median (nMad) [3, 17] | Tumor volume changes from baseline: Median (nMad) [3, 18] | Tumor volume changes from baseline: Median (nMad) [3, 19] | Tumor volume changes from baseline: Median (nMad) [3, 20] | Tumor volume changes from baseline: Median (nMad) [6, 21] | Tumor volume changes from baseline: Median (nMad) [6, 22] | Tumor volume changes from baseline: Median (nMad) [6, 23] | Tumor volume changes from baseline: Median (nMad) [6, 24] | Tumor volume changes from baseline: Median (nMad) [6, 25] | Tumor volume changes from baseline: Median (nMad) [6, 26] | Tumor volume changes from baseline: Median (nMad) [6, 27] | also measured |
| --- | --- | --- | --- | --- | --- | --- | --- | --- | --- | --- | --- | --- | --- | --- | --- | --- | --- | --- | --- | --- | --- |
| Cn1cnc2c(F)c(Nc3ccc(Br)cc3Cl)c(C(=O)NOCCO)cc21 [Compound (2a), 1H-Benzimidazole-6-carboxamide, 5-[(4-bromo-2-chlorophenyl)amino]-4-fluoro-N-(2-hydroxyethoxy)-1-methyl] | 33 | induced a higher bwl as compared to the control | 7 |  |  |  |  |  |  |  |  |  |  |  |  |  |  |  |  |  | Absolute IC40 ([1]; example 1): 27 nM; Average body weight change in % per mouse at nadir [3, 8]: −10.5%; Drug death (Day of death) [3, 8]: 0/7; day of nadir [3, 8]: 31 days; ΔT/ΔC % (day 31) [3, 8]: 36%; tolerability (body weight loss) ([4]; Cpd (2a) 25 and 10 mg/kg qd, single agents or combination): well tolerated inducing minimal bwl; Average body weight change in % per mouse at nadir [4, 9]: −4.2%; Drug death (Day of death) [4, 9]: 0/7; day of nadir [4, 9]: 27 days; ΔT/ΔC % (day 36) [4, 9]: 84%; tolerability (body weight loss) ([6]; Ex. 5, Cpd (I) 150 mg/kg bid, Cpd (2a) 25 and 10 mg/kg qd): well tolerated inducing minimal bwl; Average body weight change in % per mouse at nadir [6, 10]: −4.3%; Drug death (Day of death) [6, 10]: 0/7; day of nadir [6, 10]: 21 days; ΔT/ΔC % (day 22) [6, 10]: 35% |
| CCCS(=O)(=O)Nc1ccc(F)c(C(=O)c2c[nH]c3ncc(-c4ccc(Cl)cc4)cc23)c1F [Compound (2b), 1-Propanesulfonamide, N-[3-[[5-(4-chlorophenyl)-1H-pyrrolo[2,3-b]pyridin-3-yl]carbonyl]-2,4-difluorophenyl]] |  | well tolerated | 7 | 116 (11.9) | 254 (118.6) | 322 (94.9) | 442 (60.8) | 274 (228.3) | 36 (26.7) | 171 (40)^ | 226 (86)^ | 441 (96.4) | 193.5 (200.2)^ | 62 (16.3) | 157 (132) | 240 (132)^ | 154 (136.4) | 54 (60.8) | 126 (74.1) | 152 (161.6) | Absolute IC40 ([1]; example 2): 18 nM and 17.7 nM; Absolute IC40 ([2]; example 4): 35 nM; ΔT/ΔC % (day 31) ([3]; Ex. 7, PO d21-31, Cpd (I) 150 mg/kg bid, Cpd (2b) 50 mg/kg qd, alone or combined): > 40%; ΔT/ΔC % (day 31) ([3]; Ex. 7, PO d21-31, Cpd (I) 150 mg/kg bid, Cpd (2b) 50 mg/kg qd, alone or combined, listed as Cpd. 2b): 59%; ΔT/ΔC % (day 31) ([3]; Ex. 7, PO d21-31, Cpd (I) 150 mg/kg bid, Cpd (2b) 100 mg/kg qd, alone or combined): > 40%; ΔT/ΔC % (day 31) ([3]; Ex. 7, PO d21-31, Cpd (I) 150 mg/kg bid, Cpd (2b) 100 mg/kg qd, alone or combined, listed as Cpd. 2b): 59%; Average body weight change in % per mouse at nadir ([3]; mouse, in vivo): −6.6 (31) %; Tumor volume changes from baseline: Median (nMad) [6, 28]: 98 (89)^; tolerability (body weight loss) ([6]; Ex. 6, Cpd (I) 151.5 mg/kg bid, Cpd (2b) 100 and 50 mg/kg qd): well tolerated inducing minimal bwl; ΔT/ΔC % (day 15) [6, 29]: 20%; Average body weight change in % per mouse at nadir ([6]; mouse, in vivo): −3.7 (13) % and −1.7 (15) % |
| C[C@H]1Cc2ccccc2N1C(=O)Cc1nc(N2CCOCC2)cc(=O)[nH]1 [Compound (I), 2-{2-[(2S)-2-methyl-2,3-dihydro-1H-indol-1-yl]-2-oxoethyl}-6-(morpholin-4-yl)pyrimidin-4(3H)-one] | 834 |  | 7 | 54 (53.4) | 132 (62.3) | 162 (47.4) | 272 (20.8) | 138 (100.8) | 54 (53.4) | 132 (62.3) | 162 (47.4) | 272 (20.8) | 138 (100.8) | 54 (62.3) | 145 (71.2) | 303 (63.8) | 145 (89) | 54 (62.3) | 145 (71.2) | 303 (63.8) | IC50 [7]: > 10 µM; Tumor volume changes from baseline: Median (nMad) [6, 28]: 145 (89); Average body weight change in % per mouse at nadir [6, 29]: −2.9%; Drug death (Day of death) [6, 29]: 0/7; day of nadir [6, 29]: 15 days; ΔT/ΔC % (day 15) [6, 29]: 39% |
